Measurements from patent publication US8735622B2, “Histone demethylase inhibitors and methods for using the same” (The Regents of the University of Colorado, a body corporate, priority 2011, dated 2014).

Legend:
JMJD2A = biological target: T1, JMJD2A (Homo sapiens, UniProt O75164); assay: JMJD2A enzyme activity assay (DELFIA); format: biochemical; settings: in vitro
T1 construct: Recombinant protein preparation of GASC1(1-420), JMJD2A (1-420) and LSD1 (full-length); made in house; host or cells: Escherichia coli BL-21
T1 sequence (O75164 1-420): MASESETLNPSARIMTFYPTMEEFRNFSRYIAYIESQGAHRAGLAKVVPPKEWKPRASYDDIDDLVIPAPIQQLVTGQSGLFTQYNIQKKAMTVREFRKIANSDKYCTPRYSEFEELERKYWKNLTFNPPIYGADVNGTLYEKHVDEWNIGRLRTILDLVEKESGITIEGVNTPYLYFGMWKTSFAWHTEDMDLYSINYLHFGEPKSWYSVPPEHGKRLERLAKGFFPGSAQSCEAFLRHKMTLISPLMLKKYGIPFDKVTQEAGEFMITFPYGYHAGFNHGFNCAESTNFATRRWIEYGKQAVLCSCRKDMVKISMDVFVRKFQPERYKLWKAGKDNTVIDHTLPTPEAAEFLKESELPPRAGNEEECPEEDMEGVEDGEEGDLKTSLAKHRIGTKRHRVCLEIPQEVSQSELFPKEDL
Protocol: In order to evaluate the inhibitory activity of 1 in vitro, a GST-fusion protein of the catalytic N-terminus of human GASC1 (gene amplified in squamous cell carcinoma 1) corresponding to amino acid 1-420 was cloned and purified. […] To evaluate the enzyme specificity of 1, the activity of 1 was examined against several other related enzymes in vitro.
The enzyme activity assays for GASC1 and JMJD2A were established on the DELFIA platform. DELFIA assays were performed in white, opaque 384-well plates coated with Streptavidin (Perkin Elmer). GST-GASC1(1-420) was diluted to 200 ng/well in 20 mM Tris HCl pH 8.5/2 mM glutathione and added in a volume of 20 μL. Blank wells received Tris/glutathione buffer only. Test compounds were diluted in DMSO and […] was pinned into the wells. Blank and control wells received only compound buffer. The reactions were initiated by the addition of 500 nM biotin-H3(1-20)K9me3 substrate, 10 μM FeSO4, 100 μM alpha-ketoglutarate in a volume of 20 μL, and incubated at room temperature for 60 minutes. The plates were washed 3 times with 100 μL of Wash Buffer (50 mM Tris pH 7.4, 150 mM NaCl, 0.05% Tween 20, 0.2% BSA). […] Time resolved fluorescence was measured after 45 minutes on an Envision Microplate Imager (Perkin Elmer Life Sciences) with 400 μs delay, excitation at 360 nm, and emission at 620 nm.

KYSE150 cells = assay: Cell viability / growth inhibition assay (CellTiter-Glo); format: cell-based, human; settings: 48 hours
Description: To examine the cellular activity of the compounds of the invention, oesophageal carcinoma cell line KYSE150 was used in a growth inhibition assay because KYSE150 cells have been reported to contain several copies of the GASC1 gene, and it has been reported that inhibition of GASC1 expression using short hairpin RNA causes a significant reduction of proliferation in KYSE150 cells. […] Without being bound by any theory, it is believed that this low activity in cells was possibly due to the poor cellular uptake of the zwitterion form in which it typically exists under physiological conditions. Therefore, its methyl ester prodrug 2 (FIG. 1a), called methylstat was tested.
To screen and validate the cellular toxicity of compounds, a cell viability assay was carried out using CellTiter-Glo luminescent cell viability assay kit (Promega, Madison USA). KYSE150 cells were seeded on blank-walled 384-well plates with KYSE medium at densities of 1,000 cells/well. The medium volume for each well was 40 μL. Cells were incubated at 37° C. in 5% CO2/95% air for 24 hours. The medium was removed from each well and replaced with 38 μL, of warmed fresh medium and 2 μL, compound solution in 2% DMSO/98% H2O. The compounds were added into medium at different concentrations with the final concentration of DMSO as 0.1%. After incubation at 37° C. with 5% CO2/95% air for another 48 hours, the plates were equilibrated to room temperature for 30 minutes. 40 μL, of CellTiter-Glo reagent (Promega, Madison USA) was added to each well and mixed for 2 minutes on an orbital shaker. The plate was incubated at room temperature for another 10 minutes to stabilize luminescent signal. The luminescence of each sample was measured in a plate-reading illuminometer (Beckman Coulter DTX 880) with parameters of 1-minute lag time and 0.1 second/well read time. The experiments were performed in triplicate and repeated on two separately initiated cultures.

LSD1 = biological target: T2, LSD1 (Homo sapiens, UniProt O60341); assay: LSD1 formaldehyde dehydrogenase coupled assay; format: biochemical; settings: in vitro
T2 construct: LSD1 (full-length) was expressed as glutathione S-transferase (GST) fusions; made in house; host or cells: Escherichia coli BL-21
Protocol: LSD1 activity was measured in a formaldehyde dehydrogenase coupled assay. 15 μL enzyme mix containing 2.4 μg GST-LSD1 in 20 mM TRIS pH 8.5, 1 mM NAD, 1.5 mU formaldehyde dehydrogenase, 0.5 mM glutathione was added, followed by pin transfer of 100 nL compound. Then reactions were started by addition of 15 μL 75 μM H3(1-20)K4me2 peptide, and NADH fluorescence was measured on a Envision Microplate Imager (Perkin Elmer Life Sciences) with excitation at 345 nm and emission at 460 nm, integration for 400 ms at 10 min and 80 min after peptide addition.

[1] = system: prolyl hydroxylases (PHDs); assay: Cellular HIF-1α level (prolyl hydroxylase specificity) in HeLa cells; format: cell-based, human; settings: 24 hours, methylstat 5, 10, 15 μM
Description: To assess the specificity of methylstat in vivo, another iron(II)- and α-ketoglutarate-dependent dioxygenases, prolyl hydroxylases (PHDs), was examined. PHDs have been reported to regulate normoxic inactivation of hypoxia-inducible factors (HIFs) by hydroxylating specific prolyl residues of HIFs. […] DMOG and DFO have been used to mimic hypoxia conditions by inhibiting PHDs in vivo. […] Similar results were also observed in HeLa cells (see FIG. 7).
Total lysates of cells were generated from the cells lysed in CelLytic M Cell Lysis (Sigma) with protease inhibitor cocktail (Sigma), mixed with 2×LSB buffer (100 mM Tris-HCl pH 6.8, 200 mM DTT, 4% SDS, 20% glycerol and 0.2% bromophenol blue) and boiled for 5 min before SDS-PAGE. BCA assay (Thermo) was applied for protein qualification.

COC(=O)/C=C/C(=O)N(O)CCCCNCc1ccc(COC(=O)Nc2cccc3ccccc23)cc1 [methylstat]
inhibition of enzymatic activity of JMJD2A (JMJD2A): did not significantly inhibit
KYSE150 cell growth inhibition (KYSE150 cells; compound 1 at up to 100 μM): inhibits KYSE150 cell growth
GI50 (KYSE150 cells; Homo sapiens, KYSE-150, KYSE150 cells, read-out: half maximal growth inhibitory concentration (GI50)): ~5.1 µM
inhibition of FAD-dependent HDM LSD1 (LSD1): did not significantly inhibit
cellular HIF-1α levels / prolyl hydroxylase inhibition [1]: did not significantly inhibit prolyl hydroxylases
